Measurements reported in patent US12637457B2, “Salt form and crystal form of JAK inhibitor, preparation method therefor, and use thereof” (SHANGHAI FUDAN-ZHANGJIANG BIO-PHARMACEUTICAL CO., LTD., priority 2020, dated 2026).
Read-outs that look alike come from different tables or passages of the source. One block for each compound: values may come before it.

Key:
JAK1 = molecular target: T1, JAK1 (Homo sapiens, UniProt P23458); experiment: HTRF in vitro enzyme activity biochemical assay, JAK1; details: 1 mM ATP, 500 ng/mL JAK1
T1 construct: purchased Invitrogen PV4774
Protocol: (§1) Then, the concentration of the compound diluent was further diluted to 2.5-fold of the final test concentration with the kinase reaction buffer to obtain a compound solution to be tested.
(§2) The enzymatic reaction was initiated by adding a mixture of 2 μL of substrate and 2 μL of ATP prepared in kinase reaction buffer. […] The percentage of inhibition was calculated according to the formula: percentage of inhibition=100%−ratio value of a treated compound/ratio value of a treated DMSO carrier (DMSO carrier was a blank control group without drugs).
(§3) A dose-response curve was generated, and IC50 was calculated by non-linear S-shaped curve fitting using GraphPad Prism software.

[1] = Solubility test in common solvents (visual dissolution); assay type: physicochemical; details: 25° C.±5° C., observed within 30 minutes
Protocol: The sample that has been ground into fine powder was weighed and added to a certain volume of solvent (ambient temperature: 25° C.±5° C.), shaken strongly for 30 seconds every 5 minutes, and the dissolution was observed within 30 minutes. If there were no visually visible solute particles or droplets, the sample was regarded as completely dissolved. According to this method, the dissolution of crystal form A of the hydrochloride hydrate of the compound shown in formula I and the free base form of the compound shown in formula I in common solvents was observed, and the results are shown in Table 3.

JAK3 = molecular target: T2, JAK3 (Homo sapiens, UniProt P52333); experiment: HTRF in vitro enzyme activity biochemical assay, JAK3; details: 1 mM ATP, 37 ng/mL JAK3
T2 construct: purchased Carna Biosciences, Inc. 08-046
Protocol: as §1, §2, §3

Hygroscopicity study = assay type: physicochemical; details: 25° C./75%-RH for 5 days
Single dose PK study = assay type: in vivo; details: female SD rats, single oral dose 3 mg/kg, 0.5% CMC-Na suspension, plasma
Protocol: Two groups of SD rats (3 females in each group) were given a single oral dose of 3 mg/kg free base of the compound shown in formula I and a single oral dose of 3 mg/kg crystal form A of hydrochloride hydrate of the compound shown in formula I, respectively. The drug was administered as a 0.5% CMC-Na suspension. Samples were taken at different times until 24 hours, and the drug concentration of the compound shown in formula I in plasma was analyzed by LC-MS/MS method, and the final calculation results are shown in Table 8.
Chromatographic Conditions of LC-MS/MS Method for Compound Shown in Formula I:
• instrument model, SHIMADZU LC-30AD liquid phase system; chromatographic column, ACQUITY UPLC® BEH C18 (2.1×50 mm, 1.7 μm); column temperature, 40° C.; injection volume, 1 μL; flow rate of 0.6 mL/min; run time of 6 min; • the mobile phase gradient settings are shown in Table 5.
Instrument model, AB SCIEX TRIPLE QUAD 6500 mass spectrometer; ion source, electrospray (ESI); ionization mode, positive ion scanning; multi-ion (MRM) ion pairs are shown in Table 6; instrument parameters are shown in Table 7.

[2] = Stability test in stable chamber (temperature and humidity); assay type: physicochemical; details: for Content of compound shown in formula I: HPLC
Protocol: Whether the temperature and humidity have an impact on the stability of the crystal form A of the hydrochloride hydrate of the compound shown in formula I was tested: […]

[3] = Comparison of thermodynamic stability of crystal forms in saturated ethanol/water solution; assay type: physicochemical; details: ethanol/water 9:1 saturated solution, 50° C., stirred 24 hours
Protocol: Crystal form A, crystal form E and crystal form F were respectively dissolved in a mixed solvent of ethanol/water (volume ratio=9:1) to prepare a saturated solution. The saturated solution was heated to 50° C., and 10 mg of crystal form A, crystal form E and crystal form F were respectively added with stirring. The mixture was kept at 50° C., stirred for 24 hours, then filtered, and the XRPD of the resulting crystals was respectively determined (XRPD patterns of crystals precipitated by adding crystal forms A, E and F are shown in FIGS. 10, 11 and 12, respectively).

JAK2 = molecular target: T3, JAK2 (Homo sapiens, UniProt O60674); experiment: HTRF in vitro enzyme activity biochemical assay, JAK2; details: 1 mM ATP, 6 ng/mL JAK2
T3 construct: purchased Carna Biosciences, Inc. 08-045
Protocol: as §1, §2, §3

TYK2 = molecular target: T4, TYK2 (Homo sapiens, UniProt P29597); experiment: HTRF in vitro enzyme activity biochemical assay, TYK2; details: 1 mM ATP, 100 ng/mL TYK2
T4 construct: purchased Carna Biosciences, Inc. 08-147
T4 sequence (P29597 871-1187 limits assumed): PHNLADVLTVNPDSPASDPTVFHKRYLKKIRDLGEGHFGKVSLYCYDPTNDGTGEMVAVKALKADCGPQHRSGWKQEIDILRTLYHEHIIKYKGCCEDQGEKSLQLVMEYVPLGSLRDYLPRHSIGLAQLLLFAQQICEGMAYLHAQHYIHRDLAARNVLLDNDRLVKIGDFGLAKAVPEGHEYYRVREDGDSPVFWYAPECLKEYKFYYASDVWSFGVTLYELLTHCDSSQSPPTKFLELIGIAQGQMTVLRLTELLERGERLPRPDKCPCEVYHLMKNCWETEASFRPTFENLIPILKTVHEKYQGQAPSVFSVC
Protocol: as §1, §2, §3

[4] = 40° C./60%-RH and 25° C./75%-RH, after 30 days
[5] = listed as Free base of compound shown in formula I

T3 sequence (O60674 826-1132 limits assumed): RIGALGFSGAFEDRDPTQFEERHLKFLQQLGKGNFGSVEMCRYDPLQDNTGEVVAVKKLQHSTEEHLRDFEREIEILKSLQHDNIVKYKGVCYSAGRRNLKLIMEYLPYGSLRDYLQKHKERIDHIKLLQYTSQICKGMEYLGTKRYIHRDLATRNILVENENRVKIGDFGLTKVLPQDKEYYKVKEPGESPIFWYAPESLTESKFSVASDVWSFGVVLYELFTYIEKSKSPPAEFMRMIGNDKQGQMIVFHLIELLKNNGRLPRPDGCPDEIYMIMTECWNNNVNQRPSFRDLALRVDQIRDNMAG
T1 sequence (P23458 866-1154 limits assumed): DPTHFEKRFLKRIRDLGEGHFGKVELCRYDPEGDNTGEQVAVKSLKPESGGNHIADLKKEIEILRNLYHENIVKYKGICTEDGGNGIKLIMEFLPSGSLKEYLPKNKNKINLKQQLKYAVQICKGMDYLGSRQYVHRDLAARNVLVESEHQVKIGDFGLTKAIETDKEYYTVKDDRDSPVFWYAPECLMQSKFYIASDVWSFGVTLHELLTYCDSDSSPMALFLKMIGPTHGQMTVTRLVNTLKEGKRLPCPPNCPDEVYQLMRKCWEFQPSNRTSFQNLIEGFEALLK
T2 sequence (P52333 795-1124 limits assumed): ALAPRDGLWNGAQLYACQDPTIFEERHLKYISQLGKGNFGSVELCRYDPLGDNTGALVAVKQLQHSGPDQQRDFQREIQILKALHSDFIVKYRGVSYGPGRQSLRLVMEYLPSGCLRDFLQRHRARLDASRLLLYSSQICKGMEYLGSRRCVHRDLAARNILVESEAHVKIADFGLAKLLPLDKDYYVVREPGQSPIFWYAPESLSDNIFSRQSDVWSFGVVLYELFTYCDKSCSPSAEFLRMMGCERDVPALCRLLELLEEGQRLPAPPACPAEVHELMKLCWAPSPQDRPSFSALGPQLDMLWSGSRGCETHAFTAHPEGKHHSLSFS

Hygroscopic weight gain (Hygroscopicity study): 4.9%
Crystal form of the solid after stirring in saturated solution (XRPD) [3]: transformed into crystal form A
SMILES: O=C(Nc1cn2c(-c3ccc(CN4CCS(=O)(=O)CC4)cc3F)cccc2n1)C1CC1 [Crystal form F]

Solubility in ethanol [1, 5]: Slightly soluble
Solubility in methanol [1, 5]: Slightly soluble
Solubility in simulated gastric juice [1, 5]: Insoluble
Solubility in water [1, 5]: Very slightly soluble
Cmax (Single dose PK study; female, SD, rat, po, 3 mg/kg, read-out: Cmax): 352 ng/mL
AUC(0-t) (Single dose PK study; female, SD, rat, po, 3 mg/kg, up to 24 hours): 987 ng·h/mL
SMILES: O=C(Nc1cn2c(-c3ccc(CN4CCS(=O)(=O)CC4)cc3F)cccc2n1)C1CC1 [Free base]

More lines, now with the values behind:

SMILES: O=C(Nc1cn2c(-c3ccc(CN4CCS(=O)(=O)CC4)cc3F)cccc2n1)C1CC1 [Crystal form A]
IC50 (JAK1): 145 nM
Solubility in ethanol [1]: Soluble
Solubility in methanol [1]: Very soluble
Solubility in simulated gastric juice [1]: Sparingly soluble
Solubility in water [1]: Soluble
IC50 (JAK3): 5.52 µM
Hygroscopic weight gain (Hygroscopicity study): 2.4%
Cmax (Single dose PK study): 456 ng/mL
AUClast (Single dose PK study; up to 24 hours): 1390 ng·h/mL
Change in XRPD compared with initial crystal form [2, 4]: no significant change
Change in appearance compared with initial crystal form [2, 4]: no significant change
Content of compound shown in formula I ([2]; initial): 99.901%
Content of compound shown in formula I ([2]; placed at 25° C./75%-RH for 30 days): 99.899%
Content of compound shown in formula I ([2]; placed at 40° C./75%-RH for 30 days): 99.905%
Crystal form of the solid after stirring in saturated solution (XRPD) [3]: still crystal form A
IC50 (JAK2): 462 nM
IC50 (TYK2): 653 nM

SMILES: O=C(Nc1cn2c(-c3ccc(CN4CCS(=O)(=O)CC4)cc3F)cccc2n1)C1CC1 [Crystal form C]
Hygroscopic weight gain (Hygroscopicity study): 6.1%

SMILES: O=C(Nc1cn2c(-c3ccc(CN4CCS(=O)(=O)CC4)cc3F)cccc2n1)C1CC1 [Crystal form D]
Hygroscopic weight gain (Hygroscopicity study): 8.1%

SMILES: O=C(Nc1cn2c(-c3ccc(CN4CCS(=O)(=O)CC4)cc3F)cccc2n1)C1CC1 [Crystal form E]
Hygroscopic weight gain (Hygroscopicity study): 5.3%
Crystal form of the solid after stirring in saturated solution (XRPD) [3]: transformed into crystal form A
